Assay results as given in ChEMBL document CHEMBL1201862, “PubChem BioAssay data set” (2004).
Where “and” joins values, the source holds several entries; their conditions need not be identical. Equal values may be shown once.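 Assay format: 96-well plates, 48-hour exposure. GI50 marks 50% less growth.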 Calls of active or inactive are those of the source. Rule as the data show it: active = GI50 up to about 1.1 µM and inactive = higher.

Tests used:
Test in all cases: NCI-60 cell line screen, 48 h
UACC-62 = system: UACC-62
SN12C = system: SN12C
NCI/ADR-RES = system: NCI/ADR-RES
CCRF-CEM = system: CCRF-CEM
ACHN = system: ACHN
COLO 205 = system: COLO 205
SW-620 = system: SW-620
A549 = system: A549
U-251 = system: U-251
NCI-H460 = system: NCI-H460
NCI-H23 = system: NCI-H23
M14 = system: M14
SK-MEL-5 = system: SK-MEL-5
OVCAR-3 = system: OVCAR-3
NCI-H522 = system: NCI-H522
SNB-19 = system: SNB-19
UO-31 = system: UO-31
OVCAR-5 = system: OVCAR-5
RPMI-8226 = system: RPMI-8226
MDA-MB-435 = system: MDA-MB-435
NCI-H226 = system: NCI-H226
Hs-578T = system: Hs-578T
PC-3 = system: PC-3
EKVX = system: EKVX
SK-MEL-2 = system: SK-MEL-2
786-0 = system: 786-0
SF-268 = system: SF-268
OVCAR-4 = system: OVCAR-4
RXF 393 = system: RXF 393
SF-295 = system: SF-295
HCT-116 = system: HCT-116
IGROV-1 = system: IGROV-1
HCT-15 = system: HCT-15
HT-29 = system: HT-29
MOLT-4 = system: MOLT-4
TK-10 = system: TK-10
SK-MEL-28 = system: SK-MEL-28
LOX IMVI = system: LOX IMVI
Malme-3M = system: Malme-3M
HOP-62 = system: HOP-62
MDA-N = system: MDA-N
CAKI-1 = system: CAKI-1
BT-549 = system: BT-549
UACC-257 = system: UACC-257
MCF7 = system: MCF7
T47D = system: T47D
K562 = system: K562
MDA-MB-231 = system: MDA-MB-231
A498 = system: A498
OVCAR-8 = system: OVCAR-8
KM12 = system: KM12
HL-60 = system: HL-60
DU-145 = system: DU-145
SNB-75 = system: SNB-75
SK-OV-3 = system: SK-OV-3
HOP-92 = system: HOP-92
SF-539 = system: SF-539
HCC 2998 = system: HCC 2998

For `O=c1[nH]nc(Cc2ccccc2)n1/N=C/c1ccc(/C=N/n2c(Cc3ccccc3)n[nH]c2=O)cc1`, the GI50 (UACC-62) was > 100 µM (inactive), the GI50 (SN12C) was > 100 µM (inactive) and the GI50 (NCI/ADR-RES) was > 100 µM (inactive). The GI50 (CCRF-CEM) was 23.8 µM (inactive), the GI50 (ACHN) was > 100 µM (inactive) and the GI50 (COLO 205) was > 100 µM (inactive). For the same molecule, the GI50 (SW-620) was > 100 µM (inactive), the GI50 (A549) was > 100 µM (inactive) and the GI50 (U-251) was 57.3 µM (inactive). The GI50 (NCI-H460) was > 100 µM (inactive), the GI50 (NCI-H23) was > 100 µM (inactive) and the GI50 (M14) was > 100 µM (inactive). For the same molecule, the GI50 (SK-MEL-5) was > 100 µM (inactive), the GI50 (OVCAR-3) was > 100 µM (inactive) and the GI50 (NCI-H522) was > 100 µM (inactive). The GI50 (SNB-19) was > 100 µM (inactive), the GI50 (UO-31) was > 100 µM (inactive) and the GI50 (OVCAR-5) was > 100 µM (inactive). For the same molecule, the GI50 (RPMI-8226) was > 100 µM (inactive), the GI50 (MDA-MB-435) was > 100 µM (inactive) and the GI50 (NCI-H226) was > 100 µM (inactive). The GI50 (Hs-578T) was > 100 µM (inactive), the GI50 (PC-3) was > 100 µM (inactive) and the GI50 (EKVX) was > 100 µM (inactive). For the same molecule, the GI50 (SK-MEL-2) was > 100 µM (inactive), the GI50 (786-0) was > 100 µM (inactive) and the GI50 (SF-268) was > 100 µM (inactive). For the same molecule, the GI50 (OVCAR-4) was > 100 µM (inactive), the GI50 (RXF 393) was 35.3 µM (inactive) and the GI50 (SF-295) was 77.3 µM (inactive). The GI50 (HCT-116) was > 100 µM (inactive), the GI50 (IGROV-1) was > 100 µM (inactive) and the GI50 (HCT-15) was > 100 µM. The GI50 (HT-29) was > 100 µM (inactive), the GI50 (MOLT-4) was 19.4 µM (inactive) and the GI50 (TK-10) was 54 µM (inactive). For the same molecule, the GI50 (SK-MEL-28) was > 100 µM (inactive), the GI50 (LOX IMVI) was > 100 µM (inactive) and the GI50 (Malme-3M) was > 100 µM (inactive). The GI50 (HOP-62) was 57.5 µM (inactive), the GI50 (MDA-N) was > 100 µM (inactive) and the GI50 (CAKI-1) was > 100 µM (inactive). The GI50 (BT-549) was > 100 µM (inactive), the GI50 (UACC-257) was > 100 µM (inactive) and the GI50 (MCF7) was > 100 µM (inactive). The GI50 (T47D) was > 100 µM (inactive), the GI50 (K562) was 20.2 µM (inactive) and the GI50 (MDA-MB-231) was 38.8 µM (inactive). The GI50 (A498) was > 100 µM (inactive), the GI50 (OVCAR-8) was > 100 µM (inactive) and the GI50 (KM12) was > 100 µM (inactive). For the same molecule, the GI50 (HL-60) was 40.5 µM (inactive) and the GI50 (DU-145) was > 100 µM (inactive).

For `c1ccc2[nH]c(-c3cscn3)nc2c1` [THIABENDAZOLE], the GI50 (UACC-62) was > 100 µM (inactive), the GI50 (SN12C) was > 100 µM (inactive) and the GI50 (SNB-75) was > 100 µM (inactive). For the same molecule, the GI50 (NCI/ADR-RES) was > 100 µM (inactive), the GI50 (CCRF-CEM) was > 100 µM (inactive) and the GI50 (ACHN) was > 100 µM (inactive). For the same molecule, the GI50 (COLO 205) was > 100 µM (inactive), the GI50 (SW-620) was > 100 µM (inactive) and the GI50 (A549) was > 100 µM (inactive). For the same molecule, the GI50 (U-251) was > 100 µM (inactive), the GI50 (NCI-H460) was > 100 µM (inactive) and 54 µM (inactive) and the GI50 (NCI-H23) was > 100 µM (inactive). The GI50 (M14) was > 100 µM (inactive), the GI50 (SK-MEL-5) was > 100 µM (inactive) and the GI50 (OVCAR-3) was > 100 µM (inactive). The GI50 (NCI-H522) was > 100 µM (inactive), the GI50 (SNB-19) was > 100 µM (inactive) and the GI50 (OVCAR-5) was > 100 µM (inactive). The GI50 (MDA-MB-435) was 74.3 µM (inactive) and 44.4 µM (inactive), the GI50 (NCI-H226) was > 100 µM (inactive) and the GI50 (Hs-578T) was > 100 µM (inactive). For the same molecule, the GI50 (PC-3) was > 100 µM (inactive), the GI50 (EKVX) was > 100 µM (inactive) and the GI50 (SK-MEL-2) was > 100 µM (inactive). The GI50 (786-0) was > 100 µM (inactive), the GI50 (SF-268) was > 100 µM (inactive) and the GI50 (OVCAR-4) was > 100 µM (inactive). The GI50 (SF-295) was > 100 µM (inactive), the GI50 (HCT-116) was > 100 µM (inactive) and the GI50 (IGROV-1) was > 100 µM (inactive). The GI50 (HCT-15) was > 100 µM, the GI50 (HT-29) was > 100 µM (inactive) and 77.1 µM (inactive) and the GI50 (MOLT-4) was > 100 µM (inactive). The GI50 (TK-10) was > 100 µM (inactive), the GI50 (SK-MEL-28) was > 100 µM (inactive) and the GI50 (LOX IMVI) was > 100 µM (inactive). The GI50 (Malme-3M) was > 100 µM (inactive), the GI50 (MDA-N) was 50.4 µM (inactive) and the GI50 (BT-549) was > 100 µM (inactive). For the same molecule, the GI50 (UACC-257) was > 100 µM (inactive), the GI50 (MCF7) was > 100 µM (inactive) and the GI50 (T47D) was > 100 µM (inactive). The GI50 (K562) was > 100 µM (inactive) and 83.6 µM (inactive), the GI50 (MDA-MB-231) was > 100 µM (inactive) and the GI50 (A498) was > 100 µM (inactive). The GI50 (OVCAR-8) was > 100 µM (inactive), the GI50 (SK-OV-3) was > 100 µM (inactive) and the GI50 (HOP-92) was > 100 µM (inactive). For the same molecule, the GI50 (KM12) was > 100 µM (inactive), the GI50 (HL-60) was > 100 µM (inactive) and the GI50 (SF-539) was > 100 µM (inactive). The GI50 (DU-145) was > 100 µM (inactive) and the GI50 (HCC 2998) was > 100 µM (inactive).
